From patent publication US11253499B2, “Compounds” (priority 2017, dated 2022)
pEC50, pIC50: −log10 of the molar value. Read-outs that look alike come from different tables or passages of the source.

What was measured:
[1] = tested on: M. tuberculosis H37Rv-GFP; type: cell-based, Mycobacterium tuberculosis; conditions: read-out: EC50_H37Rv
[2] = tested on: Mycobacterium tuberculosis H37Rv in human macrophages THP-1
Procedure: Mycobacterium tuberculosis In Vitro H37Rv in Human Macrophaqes THP-1 Inhibition Assay (Intracellular Assay)
Procedure was carried out as described in Sorrentino, F. et al. (2016) Antimicrob. Agents Chemother. 60 (1), 640-645 (supplemental material), except that before THP-1 infected cells were seeded in 384 well plates, infected macrophages were filtered in the last step of wash steps with a 40 um cell strainer to remove cell clumps and obtain single cell suspension.
The compounds of the examples were tested essentially in accordance with the above-mentioned assay (without the presence of ethionamide).

[3] = potentiation of ethionamide, ETH 0.1 μg/ml, […], 5 days at 37° C., […]

Compound | pEC50 [1] | pIC50 [2] | pEC50 [1, 3]
O=C(CCC(F)(F)F)N1CC(c2ccc(F)cc2)C1 [Example 1, 4,4,4-trifluoro-1-[3-(4-fluorophenyl)azetidin-1-yl]butan-1-one] | > 7.30 | > 7.30 | –
O=C(CCC(F)(F)F)N1CC(c2cccc(C(F)(F)F)c2)C1 [Example 2, 4,4,4-trifluoro-1-[3-[3-(trifluoromethyl)phenyl]azetidin-1-yl]butan-1-one] | > 7.30 | > 7.30 | –
O=C(CCCC(F)(F)F)N1CC(c2ccc(F)cc2)C1 [Example 3, 5,5,5-trifluoro-1-[3-(4-fluorophenyl)azetidin-1-yl]pentan-1-one] | > 7.30 | 6.60 to 7.30 | –
O=C(CCC(F)(F)F)N1CC(C2CC2)C1 [Example 4, 1-(3-cyclopropylazetidin-1-yl)-4,4,4-trifluoro-butan-1-one] | 6.30 to 6.60 | 6.60 to 7.30 | –
O=C(CCC(F)(F)F)N1CC(C2CCCC2)C1 [Example 5, 1-(3-cyclopentylazetidin-1-yl)-4,4,4-trifluoro-butan-1-one] | – | – | > 7.30
O=C(CCC(F)(F)F)N1CC(C2CCCCC2)C1 [Example 6, 1-(3-cyclohexylazetidin-1-yl)-4,4,4-trifluoro-butan-1-one] | – | – | > 7.30
O=C(CCC(F)(F)F)N1CC(c2cc(C(F)(F)F)ccn2)C1 [Example 7, 4,4,4-trifluoro-1-[3-[4-(trifluoromethyl)-2-pyridyl]azetidin-1-yl]butan-1-one] | 6.60 to 7.30 | 6.60 to 7.30 | –
O=C(CCC(F)(F)F)N1CC(c2ccc(C(F)(F)F)cn2)C1 [Example 8, 4,4,4-trifluoro-1-[3-[5-(trifluoromethyl)-2-pyridyl]azetidin-1-yl]butan-1-one] | 6.30 to 6.60 | 5.00 to 6.00 | –
O=C(CCC(F)(F)F)N1CC(c2ccc(F)cn2)C1 [Example 9, 4,4,4-trifluoro-1-[3-(5-fluoro-2-pyridyl)azetidin-1-yl]butan-1-one] | 6.60 to 7.30 | 6.60 to 7.30 | –
O=C(CCC(F)(F)F)N1CC(c2ncc(F)cc2F)C1 [Example 10, 1-[3-(3,5-difluoro-2-pyridyl)azetidin-1-yl]-4,4,4-trifluoro-butan-1-one] | – | – | > 7.30
O=C(CCC(F)(F)F)N1CC(c2cc(Cl)ccn2)C1 [Example 11, 1-[3-(4-chloro-2-pyridyl)azetidin-1-yl]-4,4,4-trifluoro-butan-1-one] | 6.60 to 7.30 | 6.60 to 7.30 | –
O=C(CCC(F)(F)F)N1CC(c2ccnc(C(F)(F)F)c2)C1 [Example 12, 4,4,4-trifluoro-1-[3-[2-(trifluoromethyl)-4-pyridyl]azetidin-1-yl]butan-1-one] | 6.30 to 6.60 | 6.60 to 7.30 | –
O=C(CCC(F)(F)F)N1CC(c2ccc(Cl)cc2)C1 [Example 13, 1-[3-(4-chlorophenyl)azetidin-1-yl]-4,4,4-trifluoro-butan-1-one] | > 7.30 | 6.60 to 7.30 | –
O=C(CCC(F)(F)F)N1CC(c2ccc(OC(F)(F)F)cc2)C1 [Example 14, 4,4,4-trifluoro-1-[3-[4-(trifluoromethoxy)phenyl]azetidin-1-yl]butan-1-one] | > 7.30 | 6.30 to 6.60 | –
O=C(CCC(F)(F)F)N1CC(c2cccc(OC(F)(F)F)c2)C1 [Example 15, 4,4,4-trifluoro-1-[3-[3-(trifluoromethoxy)phenyl]azetidin-1-yl]butan-1-one] | > 7.30 | > 7.30 | –
O=C(CCC(F)(F)F)N1CC(c2ccc(C(F)(F)F)cc2)C1 [Example 16] | 6.60 to 7.30 | 6.30 to 6.60 | –
O=C(CCC(F)(F)F)N1CC(c2cccc(Cl)c2)C1 [Example 17, 1-[3-(3-chlorophenyl)azetidin-1-yl]-4,4,4-trifluoro-butan-1-one] | > 7.30 | > 7.30 | –
O=C(CCC(F)(F)F)N1CC(c2ccc(F)cc2F)C1 [Example 18, 1-[3-(2,4-difluorophenyl)azetidin-1-yl]-4,4,4-trifluoro-butan-1-one] | > 7.30 | > 7.30 | –
O=C(CCC(F)(F)F)N1CC(c2ccc(Cl)nc2)C1 [Example 19] | 6.30 to 6.60 | 6.60 to 7.30 | –
O=C(CCC(F)(F)F)N1CC(c2ccc(F)cc2Cl)C1 [Example 20, 1-[3-(2-chloro-4-fluoro-phenyl)azetidin-1-yl]-4,4,4-trifluoro-butan-1-one] | 6.60 to 7.30 | 6.60 to 7.30 | –
O=C(CCC(F)(F)F)N1CC(c2ccc(C(F)(F)F)nc2)C1 [Example 21, 4,4,4-trifluoro-1-[3-[6-(trifluoromethyl)-3-pyridyl]azetidin-1-yl]butan-1-one] | 5.00 to 6.00 | 6.30 to 6.60 | –
COc1ccc(C2CN(C(=O)CCC(F)(F)F)C2)cn1 [Example 22, 4,4,4-trifluoro-1-[3-(6-methoxy-3-pyridyl)azetidin-1-yl]butan-1-one] | – | – | > 7.30

Compound | pEC50 [1] | pIC50 [2] | pEC50 [1, 3]
O=C(CCC(F)(F)F)N1CC(c2cncc(Cl)c2)C1 [Example 23, 1-[3-(5-chloro-3-pyridyl)azetidin-1-yl]-4,4,4-trifluoro-butan-1-one] | 6.30 to 6.60 | > 7.30 | –
O=C(CCC(F)(F)F)N1CC(c2cncc(C(F)(F)F)c2)C1 [Example 24, 4,4,4-trifluoro-1-[3-[5-(trifluoromethyl)-3-pyridyl]azetidin-1-yl]butan-1-one] | – | – | 5.00 to 6.00
O=C(CCC(F)(F)F)N1CC(c2ccc(F)cc2C(F)(F)F)C1 [Example 25, 4,4,4-trifluoro-1-[3-[4-fluoro-2-(trifluoromethyl)phenyl]azetidin-1-yl]butan-1-one] | 6.60 to 7.30 | 6.60 to 7.30 | –
O=C(CCC(F)(F)F)N1CC(c2cccnc2)C1 [Example 26, 4,4,4-trifluoro-1-[3-(3-pyridyl)azetidin-1-yl]butan-1-one] | 5.00 to 6.00 | 5.00 to 6.00 | –
O=C(CCC(F)(F)F)N1CC(c2ccc(F)c(F)c2)C1 [Example 27, 1-[3-(3,4-difluorophenyl)azetidin-1-yl]-4,4,4-trifluoro-butan-1-one] | – | – | > 7.30
Cc1cc(F)ccc1C1CN(C(=O)CCC(F)(F)F)C1 [Example 28, 4,4,4-trifluoro-1-[3-(4-fluoro-2-methyl-phenyl)azetidin-1-yl]butan-1-one] | 6.60 to 7.30 | 6.60 to 7.30 | –
O=C(CCC(F)(F)F)N1CC(c2cccc(F)c2)C1 [Example 29, 4,4,4-trifluoro-1-[3-(3-fluorophenyl)azetidin-1-yl]butan-1-one] | > 7.30 | > 7.30 | –
O=C(CCC(F)(F)F)N1CC(c2ccncc2)C1 [Example 30, 4,4,4-trifluoro-1-[3-(4-pyridyl)azetidin-1-yl]butan-1-one] | – | – | 5.00 to 6.00
O=C(CCC(F)(F)F)N1CC(c2ccnc(F)c2)C1 [Example 31, 4,4,4-trifluoro-1-[3-(2-fluoro-4-pyridyl)azetidin-1-yl]butan-1-one] | – | – | 6.00 to 6.30
O=C(CCC(F)(F)F)N1CC(c2ccnc(Cl)c2)C1 [Example 32, 1-[3-(2-chloro-4-pyridyl)azetidin-1-yl]-4,4,4-trifluoro-butan-1-one] | – | – | 6.30 to 6.60
O=C(CCC(F)(F)F)N1CC(c2ccc(F)nc2)C1 [Example 33, 4,4,4-trifluoro-1-[3-(6-fluoro-3-pyridyl)azetidin-1-yl]butan-1-one] | – | – | 6.00 to 6.30
O=C(CCC(F)(F)F)N1CC(c2cc(F)c(F)c(F)c2)C1 [Example 34, 4,4,4-trifluoro-1-[3-(3,4,5-trifluorophenyl)azetidin-1-yl]butan-1-one] | > 7.30 | 6.60 to 7.30 | –
O=C(CCC(F)(F)F)N1CC(N2CCC(F)(F)CC2)C1 [Example 35, 1-[3-(4,4-difluoro-1-piperidyl)azetidin-1-yl]-4,4,4-trifluoro-butan-1-one] | – | – | 6.00 to 6.30
CC(C)Oc1ccc(C2CN(C(=O)CCC(F)(F)F)C2)cn1 [Example 36, 4,4,4-trifluoro-1-[3-(6-isopropoxy-3-pyridyl)azetidin-1-yl]butan-1-one] | – | – | 6.60 to 7.30
O=C(CCC(F)(F)F)N1CC(c2ccc(OCC(F)(F)F)nc2)C1 [Example 37, 4,4,4-trifluoro-1-[3-[6-(2,2,2-trifluoroethoxy)-3-pyridyl]azetidin-1-yl]butan-1-one] | – | – | 6.30 to 6.60
O=C(CCC(F)(F)F)N1CC(C2CCOCC2)C1 [Example 38, 4,4,4-trifluoro-1-(3-(tetrahydro-2H-pyran-4-yl)azetidin-1-yl)butan-1-one] | 6.30 to 6.60 | 6.60 to 7.30 | –
O=C(CCC(F)(F)F)N1CC(N2CCCCC2)C1 [Example 39, 4,4,4-trifluoro-1-(3-(piperidin-1-yl)azetidin-1-yl)butan-1-one] | – | – | 5.00 to 6.00
O=C(CCC(F)(F)F)N1CC(C2CCC(F)(F)CC2)C1 [Example 40, 1-(3-(4,4-difluorocyclohexyl)azetidin-1-yl)-4,4,4-trifluorobutan-1-one] | – | – | 6.60 to 7.30
COC1(c2ccc(F)cc2)CN(C(=O)CCC(F)(F)F)C1 [Example 41, 4,4,4-trifluoro-1-(3-(4-fluorophenyl)-3-methoxyazetidin-1-yl)butan-1-one] | > 7.30 | > 7.30 | –
CC1(c2ccc(F)cc2)CN(C(=O)CCC(F)(F)F)C1 [Example 42, 4,4,4-trifluoro-1-(3-(4-fluorophenyl)-3-methylazetidin-1-yl)butan-1-one] | > 7.30 | > 7.30 | –
N#Cc1ccc(C2CN(C(=O)CCC(F)(F)F)C2)cc1 [Example 43, 4-(1-(4,4,4-trifluorobutanoyl)azetidin-3-yl)benzonitrile] | – | – | 5.00 to 6.00
O=C(CCC(F)(F)F)N1CC(F)(c2ccc(F)cc2)C1 [Example 44, 4,4,4-trifluoro-1-(3-fluoro-3-(4-fluorophenyl)azetidin-1-yl)butan-1-one] | – | – | > 7.30
